For data set [1] the following is noted: cited from earlier work.
Details of data set [2]: method as in PMID 3222336. The conditions noted are these: reference compound; cited from earlier work.
The subject of another data set is HIF-1α. As to the kind of experiment: Hypoxia induction with CoCl2, Western blot. The class given is cell-based, human. The conditions noted are these: A375 cell line, 100 μM CoCl2 in DMEM, 1 and 2 h. As to the method:
The cells were seeded into 12-well plates at a concentration of 10^5 cells/well. After the cells had reached full morphology (approx. 48 h), the medium was replaced with fresh medium containing cobalt(II) chloride (CoCl2) at a concentration of 100 μM, followed by incubation at 37 °C for 1 and 2 h. In the control sample, fresh medium without CoCl2 was added. After the incubation, cells were kept on ice and washed with ice-cold 1x PBS. After removing the 1x PBS, the cells were lysed with ice-cold radio-immunoprecipitation assay buffer (RIPA) buffer (50 mM Tris, 150 mM NaCl, 0.5% sodium deoxycholate, and 1% Triton X-100) and then incubated on ice for 30 min. The cells were centrifuged at 14,000 rpm at 4 °C for 10 min to separate the DNA in pellets and proteins in the supernatant. The supernatant was collected, and 4× Laemmli sample buffer (50 mM Tris pH 6.8, 10% glycerol, 2% SDS, 2% 2-mercaptoethanol, and 0.04% bromophenol blue) was added. The samples were heated at 95 °C for 10 min before separation on 10% polyacrylamide gels (SDS-PAGE). All gels were transferred to nitrocellulose membranes using the semi-dry transfer system at 100 V (Trans-Blot Turbo RTA Transfer kit, Bio Rad, Hercules, CA, USA, #1704270). […]
(In western blotting, separated proteins are transferred to a membrane and probed.)

The structures appear in SMILES notation.

Take `C1=Cc2nc1c(-c1ccccc1)c1nc(c(-c3ccccc3)c3ccc([nH]3)c(-c3ccccc3)c3ccc([nH]3)c2-c2ccccc2)C=C1` [TPP, tetraphenylporphyrin, reference compound]: in data set [1] (reference compound (in toluene)), the ΦISC is recorded as 0.87. Further, in data set [1] (reference compound), the εT-T is on record as 66 600 M^−1cm^−1 and the τT is 90 μs. Further, the τFL in data set [2] is 10.7 ns.

In the case of `[Cl-].[Cl-].[Co+2]` [CoCl2, Cobalt(II) chloride], the “HIF-1α protein level (Western blot, normalised to β-actin)” value with HIF-1α was “accumulation of HIF-1α”.

(Values after publication PMC12382614, “(Oxidopyridyl)Porphyrins of Different Lipophilicity: Photophysical Properties, ROS Production and Phototoxicity on Melanoma Cells Under CoCl2-Induced Hypoxia” (Antioxidants, 2025).)
